{
  "source": "BindingDB's records for patent US9598446",
  "about": "(Achillion Pharmaceuticals, 2017)",
  "target": "Complement factor D (Homo sapiens, UniProt P00746)",
  "sequence (P00746 whole entry)": "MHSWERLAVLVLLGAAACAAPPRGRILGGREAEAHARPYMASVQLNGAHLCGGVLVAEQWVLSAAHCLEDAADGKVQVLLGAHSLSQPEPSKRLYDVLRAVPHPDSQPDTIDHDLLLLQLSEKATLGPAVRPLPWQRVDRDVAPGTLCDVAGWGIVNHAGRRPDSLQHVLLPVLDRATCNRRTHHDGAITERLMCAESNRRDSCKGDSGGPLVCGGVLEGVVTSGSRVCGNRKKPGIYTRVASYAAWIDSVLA",
  "experiment": "Factor D Assay",
  "protocol": "Human factor D (purified from human serum, Complement Technology, Inc.) at 80 nM final concentration is incubated with test compound at various concentrations for 5 minutes at room temperature in 50 mM Tris, 1M NaCl, pH 7.5. A synthetic substrate Z-L-Lys-SBz1 and DTNB (Ellman's reagent) are added to final concentrations of 100 μM each. The increase in color is recorded at OD405 nm in a microplate in kinetic mode over 30 minutes with 30 second time points in a […]. IC50 values are calculated by non-linear regression from the percentage of inhibition of complement factor D activity as a function of test compound concentration.",
  "data": [
    {"smiles": "CC(=O)c1cn(CC(=O)N2C[C@H](F)C[C@H]2C(=O)Nc2cccc(-c3ccccc3Cl)c2F)c2ccc(N(COC(=O)C(C)(C)C)c3cncnc3)cc12", "note": "[US9598446, Compound 15]", "values": [
      {"measurement": "IC50", "result": "in the range around 5.5 µM"}
    ]}
  ]
}
